Reference: patent publication US10434225B2, “Para-xylene films and therapeutic uses thereof” (NORTHWESTERN UNIVERSITY, priority 2013, dated 2019)

Tested on: Interleukin-6 (IL-6)
Assay: IL-6 gene expression by real-time PCR in macrophages on surfaces
Assay type: cell-based, murine
Conditions: RAW264.7 macrophages, LPS stimulated (+), DEX added to Control or integrated into PPX film
Procedure: In-vitro analysis and drug release was completed through deposition of PPX on varying culture plates. Surface treatment of prepared PPX culture plates either had plasma oxidation (Oxd) or lack thereof resulting in hydrophilic or hydrophobic surfaces (native form). RAW264.7 macrophages and NIH-3T3 fibroblasts were analyzed on varying surfaces to determine in-vitro response. Cells were kept in DMEM media supplemented with 10% FBS and 1% Pen/Strep in humidified atmosphere with 5% CO^2. Cellular analysis was completed through the application of time lapse bright field imaging in addition to multiple cellular assays examining viability (MTT, Roche Diagnostics), proliferation (CyQUANT, Life Technologies) and adhesion (Vybrant, Molecular Probes) onto polystyrene, representing baseline biocompatible control surfaces, and various PPX surfaces. RNA isolation was accomplished utilizing TRIzol reagent (Invitrogen Corporation, Carlsbad, Calif.) per the manufacturer's guidelines. cDNA was synthesized using the iScript Select cDNA Synthesis Kit (Quanta Biosciences, Gaithersburg, Md.). PCR was done using SYBER Green detection reagents (Quanta Biosciences, Gaithersburg, Md.) and appropriate primers for IL-6 and β-Actin (Integrated DNA Technologies, Coralville, Iowa). Samples were amplified using a MyiQ real-time PCR detection system (Bio-Rad).

C[C@@H]1C[C@H]2[C@@H]3CCC4=CC(=O)C=C[C@]4(C)[C@@]3(F)[C@@H](O)C[C@]2(C)[C@@]1(O)C(=O)CO [DEX, dexamethasone]
IL-6 expression, LPS stimulation (+) with DEX: 217.4±54.0
